Measurements: the supplement of paper PMC10307832

Assays:
Test in all cases: relative viability (nuclei count vs DMSO), 5 days (fraction); higher = more cells survive
201T = tested on: 201T
Summary of the method: (§1)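 Each reported value is a median over duplicate plates. It expresses relative viability: treated-well nuclei count divided by vehicle-well nuclei count. Lung cancer cell lines in 1536-well plates were dosed by pin tool a day after seeding, alone with one drug or with a fixed anchor-drug dose plus five library-drug doses (not always all listed) in √10 steps, and nuclei were counted after 5 days.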

BEN = tested on: BEN
Summary of the method: as §1

EMC-BAC-2 = tested on: EMC-BAC-2
Summary of the method: as §1

HARA = tested on: HARA
Summary of the method: as §1

HCC-44 = tested on: HCC-44
Summary of the method: as §1

LCLC-103H = tested on: LCLC-103H
Summary of the method: as §1

LOU-NH91 = tested on: LOU-NH91
Summary of the method: as §1

NCI-H1395 = tested on: NCI-H1395
Summary of the method: as §1

NCI-H1993 = tested on: NCI-H1993
Summary of the method: as §1

NCI-H2023 = tested on: NCI-H2023
Summary of the method: as §1

NCI-H2087 = tested on: NCI-H2087
Summary of the method: as §1

NCI-H2126 = tested on: NCI-H2126
Summary of the method: as §1

NCI-H2347 = tested on: NCI-H2347
Summary of the method: as §1

NCI-H23 = tested on: NCI-H23
Summary of the method: as §1

NCI-H3122 = tested on: NCI-H3122
Summary of the method: as §1

NCI-H441 = tested on: NCI-H441
Summary of the method: as §1

NCI-H522 = tested on: NCI-H522
Summary of the method: as §1

NCI-H647 = tested on: NCI-H647
Summary of the method: as §1

NCI-H650 = tested on: NCI-H650
Summary of the method: as §1

NCI-H727 = tested on: NCI-H727
Summary of the method: as §1

NCI-H838 = tested on: NCI-H838
Summary of the method: as §1

Which relative viability (201T; first compound 0.08 µM) does the source give for `O=c1cc(-c2cccc3c2Sc2ccccc2S3)oc(N2CCOCC2)c1` + CC(=O)c1c(C)c2cnc(Nc3ccc(N4CCNCC4)cn3)nc2n(C2CCCC2)c1=O [Palbociclib] (partner 0.5 µM) here?
Its relative viability is 0.348.

And the relative viability (201T; first compound 0.253 µM)?
Its relative viability is 0.362.

What about the relative viability (201T; first compound 0.8 µM) of the same compound?
The relative viability was 0.373.

And the relative viability (201T; first compound 2.53 µM)?
The relative viability was 0.348.

What about the relative viability (201T; first compound 8 µM) of the same compound?
Its relative viability is 0.359.

And the relative viability (BEN; first compound 0.08 µM)?
The relative viability was 0.464.

What about the relative viability (BEN; first compound 0.253 µM) of the same compound?
Its relative viability is 0.447.

And the relative viability (BEN; first compound 0.8 µM)?
The relative viability was 0.477.

And the relative viability (BEN; first compound 2.53 µM)?
The relative viability was 0.452.

What about the relative viability (BEN; first compound 8 µM) of the same compound?
Its relative viability is 0.499.

And the relative viability (EMC-BAC-2; first compound 0.08 µM)?
The relative viability was 0.511.

What about the relative viability (EMC-BAC-2; first compound 0.253 µM) of the same compound?
The relative viability was 0.529.

What about the relative viability (EMC-BAC-2; first compound 0.8 µM) of the same compound?
Its relative viability is 0.536.

What about the relative viability (EMC-BAC-2; first compound 2.53 µM) of the same compound?
The relative viability was 0.538.

What about the relative viability (EMC-BAC-2; first compound 8 µM) of the same compound?
Its relative viability is 0.543.

And the relative viability (HARA; first compound 0.08 µM)?
Its relative viability is 0.253.

And the relative viability (HARA; first compound 0.253 µM)?
The relative viability was 0.201.

What about the relative viability (HARA; first compound 0.8 µM) of the same compound?
The relative viability was 0.241.

And the relative viability (HARA; first compound 2.53 µM)?
The relative viability was 0.209.

What about the relative viability (HARA; first compound 8 µM) of the same compound?
Its relative viability is 0.266.

And the relative viability (HCC-44; first compound 0.08 µM)?
The relative viability was 0.965.

What about the relative viability (HCC-44; first compound 0.253 µM) of the same compound?
The relative viability was 0.918.

What about the relative viability (HCC-44; first compound 0.8 µM) of the same compound?
Its relative viability is 0.919.

And the relative viability (HCC-44; first compound 2.53 µM)?
Its relative viability is 0.958.

And the relative viability (HCC-44; first compound 8 µM)?
Its relative viability is 0.962.

And the relative viability (LCLC-103H; first compound 0.08 µM)?
The relative viability was 0.461.

What about the relative viability (LCLC-103H; first compound 0.253 µM) of the same compound?
Its relative viability is 0.51.

And the relative viability (LCLC-103H; first compound 0.8 µM)?
Its relative viability is 0.477.

And the relative viability (LCLC-103H; first compound 2.53 µM)?
Its relative viability is 0.46.

And the relative viability (LCLC-103H; first compound 8 µM)?
Its relative viability is 0.448.

And the relative viability (LOU-NH91; first compound 0.08 µM)?
The relative viability was 0.528.

What about the relative viability (LOU-NH91; first compound 0.253 µM) of the same compound?
Its relative viability is 0.518.

And the relative viability (LOU-NH91; first compound 0.8 µM)?
Its relative viability is 0.543.

And the relative viability (LOU-NH91; first compound 2.53 µM)?
Its relative viability is 0.535.

And the relative viability (LOU-NH91; first compound 8 µM)?
Its relative viability is 0.571.

And the relative viability (NCI-H1395; first compound 0.08 µM)?
The relative viability was 0.62.

And the relative viability (NCI-H1395; first compound 0.253 µM)?
Its relative viability is 0.539.

What about the relative viability (NCI-H1395; first compound 0.8 µM) of the same compound?
Its relative viability is 0.568.

What about the relative viability (NCI-H1395; first compound 2.53 µM) of the same compound?
The relative viability was 0.574.

What about the relative viability (NCI-H1395; first compound 8 µM) of the same compound?
The relative viability was 0.638.

And the relative viability (NCI-H1993; first compound 0.08 µM)?
Its relative viability is 0.632.

What about the relative viability (NCI-H1993; first compound 0.253 µM) of the same compound?
The relative viability was 0.674.

And the relative viability (NCI-H1993; first compound 0.8 µM)?
The relative viability was 0.526.

What about the relative viability (NCI-H1993; first compound 2.53 µM) of the same compound?
The relative viability was 0.599.

What about the relative viability (NCI-H1993; first compound 8 µM) of the same compound?
Its relative viability is 0.709.

And the relative viability (NCI-H2023; first compound 0.08 µM)?
Its relative viability is 0.379.

What about the relative viability (NCI-H2023; first compound 0.253 µM) of the same compound?
Its relative viability is 0.407.

And the relative viability (NCI-H2023; first compound 0.8 µM)?
The relative viability was 0.407.

And the relative viability (NCI-H2023; first compound 2.53 µM)?
The relative viability was 0.369.

What about the relative viability (NCI-H2023; first compound 8 µM) of the same compound?
Its relative viability is 0.291.

And the relative viability (NCI-H2087; first compound 0.08 µM)?
Its relative viability is 0.23.

What about the relative viability (NCI-H2087; first compound 0.253 µM) of the same compound?
The relative viability was 0.234.

What about the relative viability (NCI-H2087; first compound 0.8 µM) of the same compound?
The relative viability was 0.203.

What about the relative viability (NCI-H2087; first compound 2.53 µM) of the same compound?
The relative viability was 0.222.

And the relative viability (NCI-H2087; first compound 8 µM)?
The relative viability was 0.201.

What about the relative viability (NCI-H2126; first compound 0.08 µM) of the same compound?
Its relative viability is 0.393.

And the relative viability (NCI-H2126; first compound 0.253 µM)?
Its relative viability is 0.361.

What about the relative viability (NCI-H2126; first compound 0.8 µM) of the same compound?
The relative viability was 0.357.

What about the relative viability (NCI-H2126; first compound 2.53 µM) of the same compound?
The relative viability was 0.358.

What about the relative viability (NCI-H2126; first compound 8 µM) of the same compound?
Its relative viability is 0.357.

And the relative viability (NCI-H2347; first compound 0.08 µM)?
The relative viability was 0.42.

What about the relative viability (NCI-H2347; first compound 0.253 µM) of the same compound?
The relative viability was 0.483.

What about the relative viability (NCI-H2347; first compound 0.8 µM) of the same compound?
The relative viability was 0.453.

And the relative viability (NCI-H2347; first compound 2.53 µM)?
The relative viability was 0.39.

What about the relative viability (NCI-H2347; first compound 8 µM) of the same compound?
The relative viability was 0.483.

What about the relative viability (NCI-H23; first compound 0.08 µM) of the same compound?
Its relative viability is 0.57.

And the relative viability (NCI-H23; first compound 0.253 µM)?
The relative viability was 0.485.

What about the relative viability (NCI-H23; first compound 0.8 µM) of the same compound?
Its relative viability is 0.498.

What about the relative viability (NCI-H23; first compound 2.53 µM) of the same compound?
The relative viability was 0.451.

And the relative viability (NCI-H23; first compound 8 µM)?
Its relative viability is 0.451.

And the relative viability (NCI-H3122; first compound 0.08 µM)?
Its relative viability is 0.169.

And the relative viability (NCI-H3122; first compound 0.253 µM)?
The relative viability was 0.2.

What about the relative viability (NCI-H3122; first compound 0.8 µM) of the same compound?
Its relative viability is 0.208.

And the relative viability (NCI-H3122; first compound 2.53 µM)?
Its relative viability is 0.188.

What about the relative viability (NCI-H3122; first compound 8 µM) of the same compound?
The relative viability was 0.192.

And the relative viability (NCI-H441; first compound 0.08 µM)?
Its relative viability is 0.189.

And the relative viability (NCI-H441; first compound 0.253 µM)?
The relative viability was 0.187.

And the relative viability (NCI-H441; first compound 0.8 µM)?
Its relative viability is 0.215.

What about the relative viability (NCI-H441; first compound 2.53 µM) of the same compound?
Its relative viability is 0.203.

What about the relative viability (NCI-H441; first compound 8 µM) of the same compound?
Its relative viability is 0.18.

And the relative viability (NCI-H522; first compound 0.08 µM)?
The relative viability was 1.13.

And the relative viability (NCI-H522; first compound 0.253 µM)?
Its relative viability is 1.07.

And the relative viability (NCI-H522; first compound 0.8 µM)?
Its relative viability is 1.01.

What about the relative viability (NCI-H522; first compound 2.53 µM) of the same compound?
The relative viability was 1.04.

What about the relative viability (NCI-H522; first compound 8 µM) of the same compound?
The relative viability was 1.

What about the relative viability (NCI-H647; first compound 0.08 µM) of the same compound?
The relative viability was 0.438.

What about the relative viability (NCI-H647; first compound 0.253 µM) of the same compound?
Its relative viability is 0.487.

And the relative viability (NCI-H647; first compound 0.8 µM)?
The relative viability was 0.357.

And the relative viability (NCI-H647; first compound 2.53 µM)?
The relative viability was 0.296.

And the relative viability (NCI-H647; first compound 8 µM)?
The relative viability was 0.391.

And the relative viability (NCI-H650; first compound 0.08 µM)?
Its relative viability is 0.346.

What about the relative viability (NCI-H650; first compound 0.253 µM) of the same compound?
The relative viability was 0.323.

What about the relative viability (NCI-H650; first compound 0.8 µM) of the same compound?
The relative viability was 0.372.

What about the relative viability (NCI-H650; first compound 2.53 µM) of the same compound?
Its relative viability is 0.278.

What about the relative viability (NCI-H650; first compound 8 µM) of the same compound?
The relative viability was 0.36.

And the relative viability (NCI-H727; first compound 0.08 µM)?
The relative viability was 0.613.

And the relative viability (NCI-H727; first compound 0.253 µM)?
The relative viability was 0.813.

What about the relative viability (NCI-H727; first compound 2.53 µM) of the same compound?
The relative viability was 0.512.

And the relative viability (NCI-H727; first compound 8 µM)?
Its relative viability is 0.613.

And the relative viability (NCI-H838; first compound 0.08 µM)?
Its relative viability is 0.187.

What about the relative viability (NCI-H838; first compound 0.253 µM) of the same compound?
The relative viability was 0.265.

And the relative viability (NCI-H838; first compound 0.8 µM)?
Its relative viability is 0.202.

And the relative viability (NCI-H838; first compound 2.53 µM)?
The relative viability was 0.212.

What about the relative viability (NCI-H838; first compound 8 µM) of the same compound?
Its relative viability is 0.222.
